pIC50: −log10 of the molar value. Activity calls are given as the source filed them. No cut-off for these calls is given here.
What was measured:
RAW264.7 [1] = experiment: Antiinflammatory activity in mouse RAW264.7 cells assessed as inhibition of LPS-induced NO production at 10 uM preincubated for 2 hrs followed by LPS stimulation and measured after 24 hrs by Griess method relative to control; assay type: functional; settings: time 26 hrs
RAW264.7 [2] = experiment: Antiinflammatory activity in mouse RAW264.7 cells assessed as inhibition of LPS-induced NO production preincubated for 2 hrs followed by LPS stimulation and measured after 24 hrs by Griess method; assay type: functional, cell-based
[3] = Cytotoxicity against mouse RAW264.7 cells assessed as cell viability at 40 uM measured after 24 hrs by MTT assay relative to control; assay type: cell-based
RAW264.7 [4] = experiment: Antiinflammatory activity in mouse RAW264.7 cells assessed as inhibition of LPS-induced TNFalpha production at 10 uM preincubated for 1 hr followed by LPS stimulation and measured after 22 hrs by ELISA; assay type: functional, cell-based; settings: time 23.0 hrs
RAW264.7 [5] = experiment: Antiinflammatory activity in mouse RAW264.7 cells assessed as inhibition of LPS-induced IL1beta production at 10 uM preincubated for 1 hr followed by LPS stimulation and measured after 22 hrs by ELISA; assay type: functional, cell-based; settings: time 23.0 hrs
RAW264.7 [6] = experiment: Antiinflammatory activity in mouse RAW264.7 cells assessed as inhibition of LPS-induced IL6 production at 10 uM preincubated for 1 hr followed by LPS stimulation and measured after 22 hrs by ELISA; assay type: functional, cell-based; settings: time 23.0 hrs

| SMILES | pIC50 (RAW264.7 [2]) | inhibition at 10 µM (RAW264.7 [1]) [%] | viability at 24 h, 40 µM [3] [%] | inhibition (RAW264.7 [4]) | inhibition (RAW264.7 [5]) | inhibition (RAW264.7 [6]) |
| --- | --- | --- | --- | --- | --- | --- |
| COc1ccc([C@@H]2C/C(=N\O)c3c(O)cc(OCc4cn(Cc5ccccc5F)nn4)cc3O2)cc1O | 5.24 | 65.4 | 82 | Active | Active | Active |
| COc1ccc([C@@H]2C/C(=N\O)c3c(O)cc(OCc4cn(Cc5ccccc5C)nn4)cc3O2)cc1O | 4.74 | 22.5 | 83 | Active | Active | Active |
| CCCCn1cc(COc2cc(O)c3c(c2)O[C@H](c2ccc(OC)c(O)c2)CC3=O)nn1 | 4.86 | 49.9 | 118 | Active | Active | Active |
| COc1ccc([C@@H]2CC(=O)c3c(O)cc(OCc4cn(CCCO)nn4)cc3O2)cc1O | 4.78 | 32.8 | 121 | Active | Active | Active |
| COc1ccc([C@@H]2C/C(=N\O)c3c(O)cc(OCc4cn(Cc5ccccc5Cl)nn4)cc3O2)cc1O | 4.87 | 33 | 86 | Active | Active | Active |
| CCCCn1cc(COc2cc(O)c3c(c2)O[C@H](c2ccc(OC)c(O)c2)C/C3=N\O)nn1 | 5.05 | 56.9 | 62 | Active | Active | Active |
| COc1ccc([C@@H]2CC(=O)c3c(O)cc(OCc4cn(Cc5ccccc5C#N)nn4)cc3O2)cc1O | 4.84 | 43.6 | 114 | Active | Active | Active |
| COc1ccc([C@@H]2CC(=O)c3c(O)cc(OCc4cn(Cc5ccccc5C)nn4)cc3O2)cc1O | 4.88 | 45.7 | 100 | Active | Active | Active |
| COc1ccc([C@@H]2CC(=O)c3c(O)cc(OCc4cn(Cc5ccc(C)cc5)nn4)cc3O2)cc1O | 4.77 | 29.4 | 110 | Active | Active | Active |
| COc1ccc([C@@H]2CC(=O)c3c(O)cc(OCc4cn(Cc5cccc(C)c5)nn4)cc3O2)cc1O | 4.76 | 31 | 113 | Active | Active | Active |
| COc1ccc([C@@H]2CC(=O)c3c(O)cc(OCc4cn(CCO)nn4)cc3O2)cc1O | 4.75 | 24.7 | 112 | Active | Active | Active |
| COc1ccc([C@@H]2C/C(=N\O)c3c(O)cc(OCc4cn(CC5CC5)nn4)cc3O2)cc1O | 5.20 | 67 | 86 | Active | Active | Active |
| COc1ccc([C@@H]2C/C(=N\O)c3c(O)cc(OCc4cn(Cc5ccccc5)nn4)cc3O2)cc1O | 5.21 | 63.6 | 93 | Active | Active | Active |
| COc1ccc([C@@H]2CC(=O)c3c(O)cc(OCc4cn(Cc5cccc(C#N)c5)nn4)cc3O2)cc1O | 4.74 | 32.9 | 56 | Active | Active | Active |
| COc1ccc([C@@H]2CC(=O)c3c(O)cc(OCc4cn(Cc5cccc(Cl)c5)nn4)cc3O2)cc1O | 4.74 | 28 | 120 | Active | Active | Active |
| COc1ccc2c(c1)c(CC(=O)O)c(C)n2C(=O)c1ccc(Cl)cc1 [INDOMETHACIN] | – | – | 87 | Active | Active | Active |
| Cc1ccc(-c2cc(C(F)(F)F)nn2-c2ccc(S(N)(=O)=O)cc2)cc1 [CELECOXIB] | – | – | 83 | Active | Active | Active |
| C#CCOc1cc(O)c2c(c1)O[C@H](c1ccc(OC)c(O)c1)CC2=O | 4.68 | 35.2 | – | – | – | – |
| C#CCOc1cc(O)c2c(c1)O[C@H](c1ccc(OC)c(O)c1)C/C2=N\O | 4.72 | 38.7 | – | – | – | – |

The remaining compounds from weak to strong by pIC50 (RAW264.7 [2]), led by results:

| pIC50 (RAW264.7 [2]) | SMILES | inhibition at 10 µM (RAW264.7 [1]) [%] | viability at 24 h, 40 µM [3] [%] | inhibition (RAW264.7 [4]) | inhibition (RAW264.7 [5]) | inhibition (RAW264.7 [6]) |
| --- | --- | --- | --- | --- | --- | --- |
| 4.81 | COc1ccc([C@@H]2CC(=O)c3c(O)cc(OCc4cn(C5CCCCC5)nn4)cc3O2)cc1O | 42.4 | 124 | Active | Active | Active |
| 4.82 | COc1ccc([C@@H]2CC(=O)c3c(O)cc(OCc4cn(C)nn4)cc3O2)cc1O | 40 | 105 | Active | Active | Active |
| 4.82 | COc1ccc([C@@H]2CC(=O)c3c(O)cc(OCc4cn(Cc5ccc(F)cc5)nn4)cc3O2)cc1O | 41.4 | 101 | Active | Active | Active |
| 4.86 | C=CCn1cc(COc2cc(O)c3c(c2)O[C@H](c2ccc(OC)c(O)c2)CC3=O)nn1 | 50.1 | 118 | Active | Active | Active |
| 4.88 | COc1ccc([C@@H]2CC(=O)c3c(O)cc(OCc4cn(CC(=O)c5ccccc5Cl)nn4)cc3O2)cc1O | 34.1 | 99 | Active | Active | Active |
| 4.93 | COc1ccc([C@@H]2CC(=O)c3c(O)cc(OCc4cn(CC5CC5)nn4)cc3O2)cc1O | 48.8 | 87 | Active | Active | Active |
| 4.98 | COc1ccc([C@@H]2CC(=O)c3c(O)cc(OCc4cn(C5CCCC5)nn4)cc3O2)cc1O | 53.8 | 110 | Active | Active | Active |
| 5.01 | CCCn1cc(COc2cc(O)c3c(c2)O[C@H](c2ccc(OC)c(O)c2)CC3=O)nn1 | 56.4 | 114 | Active | Active | Active |
| 5.16 | COc1ccc([C@@H]2C/C(=N\O)c3c(O)cc(OCc4cn(C5CCCC5)nn4)cc3O2)cc1O | 63.7 | 112 | Active | Active | Active |

Reference: ChEMBL document CHEMBL4732160, “Design and synthesis of 7-O-1,2,3-triazole hesperetin derivatives to relieve inflammation of acute liver injury in mice” (Eur J Med Chem, 2021)
